Measured values taken from patent US20080146555A1, “Uses of Kinase Inhibitors and Compositions Thereof” (GPC Biotech, Inc, priority 2004, published 2008).
Counter-ions that a name gives are not always drawn. Like-named read-outs stand apart in the source and are kept apart here.

Legend:
Cdk1 = Cdk1 (Homo sapiens, UniProt P06493); assay: Cdk1 inhibition; assay type: biochemical
From the text: Further inhibition results for subject compounds of the invention against other CDKs and further kinases are shown in Table 5, Table II and described in Example 6.
Table 3, Table 4, Table 5 and Table II show the results obtained for inhibition of a broad range of such kinases for subject compounds of the invention.

GSK3β = biological target: T1, GSK3β (Homo sapiens, UniProt P49841); assay: GSK3β kinase assay; assay type: biochemical
T1 construct: purchased Upstate 14-306
Description: • 1. Reaction Buffer: 8 mM MOPS, pH 7.0, 0.2 mM EDTA, 110 mM magnesium acetate. • 2. GSK3β, active: 5-40 ng per assay point. Dilute to 0.5-4 ng/μl in Reaction Buffer containing 0.03% Brij-35. • 3. Phospho-Glycogen Synthase Peptide-2 (Catalog #12-241): Prepare a 250 μM stock. Use 10 μl per assay point for a final assay concentration of 62.5 μM per assay point. • 4. [γ-^32P]ATP: Stock 1 mCi/100 μl (3000 Ci/mmol, obtained from Perkin Elmer, Cat. # BLU002A). Make 10 μl aliquots (100 μCi/vial). Before starting the assay, dilute an aliquot to 1 μCi/μl with 90 μl of 75 mM magnesium chloride and 500 μM unlabeled ATP in 20 mM MOPS, pH 7.2, 25 mM β-glycerol phosphate, 5 mM EGTA, 1 mM sodium orthovanadate, 1 mM dithiothreitol.
• 1. Add 10 μl of Reaction Buffer per assay. • 2. Add 10 μl of substrate peptide [final assay concentration of 62.5 μM]. • 3. Add 10 μl of GSK3β, active [5-40 ng per assay]. • 4. Add 10 μl of the diluted [^32P]ATP mixture. • 5. Incubate for 30 minutes at 30° C. • 6. Spot 25 μl onto the center of a 2 cm×2 cm P81 paper square. • 7. Wash the assay squares five times with 0.75% phosphoric acid. • 8. Wash the assay squares once with acetone. • 9. Transfer the assay squares to vial and add 5 ml scintillation cocktail. • 10. Read in scintillation counter. Compare cpm of enzyme samples to cpm of control samples that contain no enzyme (background control).

JNK3 = biological target: T2, JNK3 (Homo sapiens, UniProt P53779); assay: JNK3 kinase assay; assay type: biochemical
T2 construct: purchased Upstate 14-501
Description: • 1. 10× Reaction Buffer: 500 mM Tris-HCl pH 7.5, 1 mM EGTA, 1% 2-mercaptoethanol. • 2. Enzyme Dilution Buffer (EDB): 50 mM Tris-HCl pH 7.5, 0.1 mM EGTA, 0.1% 2-mercaptoethanol, 1 mg/ml BSA, 0.03% Brij-35. • 3. JNK3/SAPK1b, active: Dilute to 4-24 ng/μl with EDB. Use 2.5 μl per assay point. • 4. ATF2 (amino acids 19-96) (Catalog #12-367): Prepare a 1.08 mg/ml stock. Use 2.5 μl per assay point for a final concentration of 3 μM per assay point. • 5. [γ-^32P]ATP: Stock 1 mCi/100 μl (3000 Ci/mmol, obtained from PerkinElmer, Cat. # BLU002A). Make 10 μl aliquots (100 μCi/vial). Before starting the assay, dilute an aliquot to 1 μCi/μl with 90 μl of 75 mM MgCl2 and 500 μM cold ATP in 20 mM MOPS, pH 7.2, 25 mM β-glycerol phosphate, 5 mM EGTA, 1 mM sodium orthovanadate, 1 mM dithiothreitol.
• 1. Add 2.5 μl of 10× Reaction Buffer per assay. • 2. Add 2.5 μl of ATF2 (amino acids 19-96). • 3. Add 2.5 μl (10-60 ng) JNK3/SAPK1b, active. • 4. Add 7.5 μl of sterile, distilled water. • 5. Add 10 μl of the diluted [γ-^32P]ATP mixture. • 6. Incubate for 10 minutes at 30° C. • 7. Transfer a 20 μl aliquot onto the center of a 2 cm×2 cm P81 paper. • 8. Wash the assay squares three times for 5 minutes with 0.75% phosphoric acid. • 9. Wash the assay squares once for 5 minutes with acetone. • 10. Transfer the assay squares to vial and add 5 ml scintillation cocktail. • 11. Read in scintillation counter. Compare cpm of enzyme samples to cpm of control samples that contain background control.

CEM/C2 = assay: SRB cytotoxicity, camptothecin resistant cells; assay type: cell-based, human; conditions: for IC50: Homo sapiens, CEM/C2, 72 h, SRB
Description: In these experiments, the P-glycoprotein expressing NCI-Adr resistant subline (Vickers et al., 1989. Mol Endocrinology 3 (1):157-164) was used. […] Briefly, cells were plated in 96 well dishes 24 hours prior to compound addition. Where noted, they were exposed to verapamil for 4 hours prior to compound addition and then throughout the treatment period (72 hours). The assay was terminated with the addition of cold TCA to a final concentration of 10% and the plates were incubated for one hour at 4° C. The plates were then washed 5 times with water and 100 μl of a Sulforhodamine B solution (4%) was added to each well. The plate was then incubated for 10 minutes at room temperature before removal of unbound dye by washing with 1% acetic acid.
The Camptothecin resistant CEM/C2 cells were derived from the T lymphoblastoid leukemia cell line CCRF/CEM by selection in the presence of Camptothecin in vitro (Kapoor et al., 1995. Oncology Research 7; 83-95, ATCC).
The effects of A37 and B16 were evaluated in the CCRF/CEM and CEM/C2 cells using the same SRB assay as described above, with 72-hour drug exposure.

[1] = kinase panel, 10 μM ATP, read-out: GSK3β IC50
[2] = read-out: GSK3B Inhibition (IC50)
[3] = kinase panel, 10 μM ATP, read-out: JNK3 IC50
[4] = read-out: MAPK10 Inhibition (IC50)

T1 sequence (P49841 whole entry): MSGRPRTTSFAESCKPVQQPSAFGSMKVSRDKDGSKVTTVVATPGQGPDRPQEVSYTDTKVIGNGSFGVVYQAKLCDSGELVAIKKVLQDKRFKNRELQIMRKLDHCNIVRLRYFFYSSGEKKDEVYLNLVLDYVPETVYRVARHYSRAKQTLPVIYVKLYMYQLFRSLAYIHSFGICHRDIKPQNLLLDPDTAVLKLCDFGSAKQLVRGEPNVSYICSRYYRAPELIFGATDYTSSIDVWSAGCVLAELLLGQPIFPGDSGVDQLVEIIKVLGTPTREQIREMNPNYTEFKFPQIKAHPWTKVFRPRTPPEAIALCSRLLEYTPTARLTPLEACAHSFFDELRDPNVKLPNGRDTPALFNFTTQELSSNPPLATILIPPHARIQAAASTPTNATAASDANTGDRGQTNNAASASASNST
T2 sequence (P53779 39-464): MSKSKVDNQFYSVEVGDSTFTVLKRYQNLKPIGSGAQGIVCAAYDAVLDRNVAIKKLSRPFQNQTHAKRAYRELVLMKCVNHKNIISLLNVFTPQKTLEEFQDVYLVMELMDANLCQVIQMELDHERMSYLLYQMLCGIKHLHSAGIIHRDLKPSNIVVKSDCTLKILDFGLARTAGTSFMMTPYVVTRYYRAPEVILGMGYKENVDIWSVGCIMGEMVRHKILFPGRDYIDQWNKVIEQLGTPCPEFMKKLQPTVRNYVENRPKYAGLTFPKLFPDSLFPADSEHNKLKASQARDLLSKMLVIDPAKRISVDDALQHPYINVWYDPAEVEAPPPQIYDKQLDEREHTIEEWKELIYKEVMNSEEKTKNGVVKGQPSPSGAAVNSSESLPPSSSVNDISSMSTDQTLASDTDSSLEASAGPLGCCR
Cdk1, sequence (P06493 whole entry, species assumed): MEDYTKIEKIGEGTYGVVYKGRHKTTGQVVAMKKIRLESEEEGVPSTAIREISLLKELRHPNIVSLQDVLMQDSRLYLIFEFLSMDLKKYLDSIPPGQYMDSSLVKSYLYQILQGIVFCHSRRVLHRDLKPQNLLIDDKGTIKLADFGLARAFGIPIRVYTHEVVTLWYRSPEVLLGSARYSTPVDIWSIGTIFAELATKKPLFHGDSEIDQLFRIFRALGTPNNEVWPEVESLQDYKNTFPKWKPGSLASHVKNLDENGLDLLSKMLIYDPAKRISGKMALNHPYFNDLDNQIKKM
Cdk1, sequence (P14635 whole entry partner, species assumed): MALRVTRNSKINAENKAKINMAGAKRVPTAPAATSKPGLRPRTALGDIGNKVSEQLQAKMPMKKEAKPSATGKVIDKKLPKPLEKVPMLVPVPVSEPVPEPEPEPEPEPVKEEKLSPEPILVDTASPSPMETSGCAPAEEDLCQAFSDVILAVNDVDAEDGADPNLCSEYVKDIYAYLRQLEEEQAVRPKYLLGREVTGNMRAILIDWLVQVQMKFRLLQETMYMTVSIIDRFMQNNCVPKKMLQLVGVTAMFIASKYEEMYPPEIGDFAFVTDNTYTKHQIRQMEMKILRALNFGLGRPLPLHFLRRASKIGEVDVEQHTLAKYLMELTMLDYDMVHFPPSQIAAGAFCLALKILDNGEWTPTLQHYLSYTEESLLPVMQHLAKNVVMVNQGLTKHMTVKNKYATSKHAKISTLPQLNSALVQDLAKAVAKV

SMILES	IC50 (Cdk1)	IC50 (GSK3β; [1])	IC50 (GSK3β; [2])	IC50 (JNK3; [3])	IC50 (JNK3; [4])	RR (relative resistance) CEM/C2 vs CEM (CEM/C2)	IC50 (CEM/C2)
COCCN1CCN(Cc2ccc(-c3n[nH]c4c3C(=O)c3c(NC(=O)NN5CCOCC5)cccc3-4)cc2)CC1 [Compound B16, N-[3-(4-{[4-(2-methoxyethyl)piperazinyl]methyl}phenyl)-4-oxoindeno[2,3-d]pyrazol-5-yl](morpholin-4-ylamino)carboxamide dihydrochloride]	< 5 nM	< 100 nM	< 5 nM	< 100 nM	< 50 nM	1.01	25.3 nM
CC(C)N1CCN(C(=O)COc2ccc(-c3n[nH]c4c3C(=O)c3c(NC(=O)NN5CCOCC5)cccc3-4)cc2)CC1 [Compound A37]	< 50 nM	< 3 nM	< 5 nM	10 to 100 nM	< 50 nM	0.72	15.3 nM
